According to patent US5698538A, “Boronic acid and ester inhibitors of thrombin” (The DuPont Merck Pharmaceutical Company, priority 1996, dated 1997):
Structures can show the parent of a compound that is named as a salt. Where two headings read alike, the source gives them in different places.

Tests used:
Type in all cases: biochemical
[1] = target: T1, human factor VIIa (Homo sapiens, UniProt P08709); assay: Inhibition of human factor VIIa (chromogenic substrate S2288), inhibitory constant Ki
T1 construct: Factor VIIa in the extrinsic pathway; purchased BiosPacific, Emeryville, Calif
T1 sequence (P08709 213-466 limits assumed): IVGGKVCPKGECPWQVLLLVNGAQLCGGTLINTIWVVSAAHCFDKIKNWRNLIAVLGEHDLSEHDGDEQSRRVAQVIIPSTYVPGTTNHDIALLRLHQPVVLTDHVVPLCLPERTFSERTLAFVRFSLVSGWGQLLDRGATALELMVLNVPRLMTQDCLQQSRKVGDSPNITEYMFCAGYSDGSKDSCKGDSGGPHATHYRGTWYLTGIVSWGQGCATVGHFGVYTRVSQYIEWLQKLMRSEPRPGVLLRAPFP
T1 sequence (P08709 61-212 partner limits assumed): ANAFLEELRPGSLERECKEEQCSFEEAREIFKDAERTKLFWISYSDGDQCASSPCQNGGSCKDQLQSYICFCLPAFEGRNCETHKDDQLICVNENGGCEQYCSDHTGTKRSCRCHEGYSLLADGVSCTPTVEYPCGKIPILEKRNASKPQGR
Description: (§1) The effectiveness of compounds of the present invention as inhibitors of blood coagulation proteases was determined using purified human proteases and synthetic substrates following procedures similar to those described in Kettner et al. (1990).
(§2) For these assays, the rate of enzymatic (thrombin, Factor Xa, and Factor VIIa) hydrolysis of chromogenic substrates (S2238 (H-D-Phe-Pip-Arg-pNA), S2222, and S2288, respectively; Kabi Pharmacia, Franklin, Ohio.) was measured both in the absence and presence of compounds of the present invention. […] A decrease in the rate of absorbance change at 405 nm in the presence of inhibitor is indicative of enzyme inhibition. The results of this assay are expressed as inhibitory constant, Ki.
(§3) Thrombin and Xa determinations were made in 0.10M sodium phosphate buffer, pH 7.5, containing 0.20M NaCl, and 0.5% PEG 8000. VIIa determinations were made in 0.05M tris buffer, pH 7.6, containing 0.10M NaCl, 4 mM CaCl2, and 0.1% bovine serum albumin. The Michaelis constant, Km, for substrate hydrolysis was determined at 5° C. using the method of Lineweaver and Burk.
(§4) Values of Ki were determined by allowing 0.2-0.5 nM human thrombin or human factor Xa (Enzyme Research Laboratories, South Bend, Ind.), or 50 nM human factor VIIa (BiosPacific, Emeryville, Calif.) react with the substrate (0.20 mM-1 mM) in the presence of inhibitor. Reactions were allowed to go for 30 minutes and the velocities (rate of absorbance change vs time) were measured in the time frame of 25-30 minutes. The following relationship was used to calculate Ki values. [formula] where: vo is the velocity of the control in the absence of inhibitor;
(§5) vs is the velocity in the presence of inhibitor;
(§6) I is the concentration of inhibitor;
(§7) Ki is the dissociation constant of the enzyme: inhibitor complex;
(§8) S is the concentration of substrate;
(§9) Km is the Michaelis constant.

[2] = target: T2, human thrombin (Homo sapiens, UniProt P00734); assay: Inhibition of human thrombin (chromogenic substrate S2238), inhibitory constant Ki; conditions: 0.2-0.5 nM human thrombin, S2238, pH 7.5, 30 minutes; read-out: Ki values for inhibition of Serine Proteases: Thrombin
T2 construct: purchased Enzyme Research Laboratories, South Bend, Ind
Description: as §1, §2, §3, §4, §5, §6, §7, §8, §9

[3] = target: T3, human factor Xa (Homo sapiens, UniProt P00742); assay: Inhibition of human factor Xa (chromogenic substrate S2222), inhibitory constant Ki; conditions: S2222, pH 7.5, 30 minutes, read-out: Ki values for inhibition of Serine Proteases: Factor Xa
T3 construct: purchased Enzyme Research Laboratories, South Bend, Ind
Description: as §1, §2, §3, §4, §5, §6, §7, §8, §9

[4] = 50 nM human factor VIIa, S2288, pH 7.6, 4 mM CaCl2, 30 minutes, read-out: Ki values for inhibition of Serine Proteases: Factor VIIa

T3 sequence (P00742 235-488 limits assumed): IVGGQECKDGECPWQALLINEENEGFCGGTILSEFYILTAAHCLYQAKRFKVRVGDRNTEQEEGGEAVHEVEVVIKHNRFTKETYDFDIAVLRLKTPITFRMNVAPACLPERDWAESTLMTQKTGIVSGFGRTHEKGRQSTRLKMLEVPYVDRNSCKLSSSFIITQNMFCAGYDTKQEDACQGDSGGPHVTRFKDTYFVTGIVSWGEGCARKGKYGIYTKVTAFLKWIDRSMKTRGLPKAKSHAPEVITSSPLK
T3 sequence (P00742 41-179 partner limits assumed): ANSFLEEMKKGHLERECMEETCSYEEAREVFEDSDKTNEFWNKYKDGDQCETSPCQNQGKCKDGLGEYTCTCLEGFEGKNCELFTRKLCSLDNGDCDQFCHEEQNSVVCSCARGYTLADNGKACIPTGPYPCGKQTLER

| Compound | Ki [1, 4] [µM] | Ki [2] [µM] | Ki [3] [µM] | Ki [1] [µM] |
| --- | --- | --- | --- | --- |
| CC(C)(C)NS(=O)(=O)c1ccccc1-c1ccc(C(=O)N[C@@H](CCCNC=N)B2O[C@@H]3C[C@@H]4C[C@@H](C4(C)C)[C@]3(C)O2)cc1 [Example 302] | 0.5 to 50 | < 0.5 | < 0.5 |  |
| CC(C)(C)OC(=O)Nc1cc(-c2ccccc2)ccc1C(=O)N[C@@H](CCCNC(=N)N)B1O[C@@H]2C[C@@H]3C[C@@H](C3(C)C)[C@]2(C)O1 [Example 303] | 0.5 to 50 | < 0.5 | 0.5 to 50 |  |
| COCCC[C@H](NC(=O)c1ccc(-c2ccccc2S(N)(=O)=O)cc1C)B1O[C@@H]2C[C@@H]3C[C@@H](C3(C)C)[C@]2(C)O1 [Example 305] | 0.5 to 50 | < 50 | 0.5 to 50 |  |
| CC1(C)[C@@H]2C[C@H]3OB([C@H](CCCCN)NC(=O)c4ccc(-c5ccccc5)nc4)O[C@@]3(C)[C@H]1C2 [Example 468] | 0.5 to 50 | < 50 | 0.5 to 50 |  |
| NCCCC[C@H](NC(=O)c1ccc(-c2ccccc2)nc1)B(O)O [Example 474] | 0.5 to 50 | < 50 | 0.5 to 50 |  |
| Cc1nc(Cc2ccccc2)n(CC(=O)N[C@@H](CCCCN)B2O[C@@H]3C[C@@H]4C[C@@H](C4(C)C)[C@]3(C)O2)n1 [Example 888] |  | < 0.5 | 0.5 to 50 | 0.5 to 50 |
| CCCc1nc(Cc2ccccc2)n(CC(=O)N[C@@H](CCCCN)B2O[C@@H]3C[C@@H]4C[C@@H](C4(C)C)[C@]3(C)O2)n1 [Example 890] | 0.5 to 50 | < 0.5 | 0.5 to 50 |  |
| CSCc1nc(Cc2ccccc2)n(CC(=O)N[C@@H](CCCCN)B2O[C@@H]3C[C@@H]4C[C@@H](C4(C)C)[C@]3(C)O2)n1 [Example 892] | 0.5 to 50 | < 0.5 | 0.5 to 50 |  |
| CC1(C)[C@@H]2C[C@H]3OB([C@H](CCCCN)NC(=O)Cn4nc(CC#N)nc4Cc4ccccc4)O[C@@]3(C)[C@H]1C2 [Example 898, R-N^1-(3-Cyanomethyl-5-phenylmethyl-1,2,4-triazol-1-yl)acetyl-borolysine, (+)-pinanediol ester, hydrochloride] |  | < 0.5 | 0.5 to 50 | 0.5 to 50 |
| CC1(C)[C@@H]2C[C@H]3OB([C@H](CCCCN)NC(=O)Cn4nc(CC(=O)O)nc4Cc4ccccc4)O[C@@]3(C)[C@H]1C2 [Example 905] | > 500 | < 50 | 0.5 to 50 |  |
| CC1(C)[C@@H]2C[C@H]3OB([C@H](CCCCN)NC(=O)Cn4nc(CO)nc4Cc4ccccc4)O[C@@]3(C)[C@H]1C2 [Example 913] | 0.5 to 50 | < 0.5 | > 500 |  |
| CC1(C)[C@@H]2C[C@H]3OB([C@H](CCCCN)NC(=O)Cn4nc(COCc5ccccc5)nc4Cc4ccccc4)O[C@@]3(C)[C@H]1C2 [Example 914] | 0.5 to 50 | < 0.5 | 0.5 to 50 |  |
| COC(=O)Cc1nc(Cc2ccccc2)n(CC(=O)N[C@@H](CCCCN)B2O[C@@H]3C[C@@H]4C[C@@H](C4(C)C)[C@]3(C)O2)n1 [Example 917] | 0.5 to 50 | < 0.5 | 0.5 to 50 |  |
| CC1(C)[C@@H]2C[C@H]3OB([C@H](CCCCN)NC(=O)Cn4nc(Cc5ccccc5)nc4Cc4ccccc4)O[C@@]3(C)[C@H]1C2 [Example 921] |  | < 0.5 | 0.5 to 50 | 0.5 to 50 |
| CC1(C)[C@@H]2C[C@H]3OB([C@H](CCCCN)NC(=O)Cn4nc(-c5cccc([N+](=O)[O-])c5)nc4Cc4ccccc4)O[C@@]3(C)[C@H]1C2 [Example 923] |  | < 0.5 | 0.5 to 50 | 0.5 to 50 |
| CC1(C)[C@@H]2C[C@H]3OB([C@H](CCCCN)NC(=O)Cn4nc(-c5cccc(N)c5)nc4Cc4ccccc4)O[C@@]3(C)[C@H]1C2 [Example 931] |  | < 0.5 | 0.5 to 50 | 0.5 to 50 |
| COC(=O)Cc1nc(Cc2ccccc2)nn1CC(=O)N[C@@H](CCCCN)B1OC2CC3CC(C3(C)C)C2(C)O1 (stereo partly drawn) [Example 2443] | 0.5 to 50 | < 0.5 | 0.5 to 50 |  |
| CC1(C)C2CC3OB([C@H](CCCCN)NC(=O)Cn4nc(Cc5ccccc5)nc4-c4ccccc4)OC3(C)C1C2 (stereo partly drawn) [Example 2446] | 0.5 to 50 | < 0.5 | 0.5 to 50 |  |
| CC1(C)C2CC3OB([C@H](CCCCN)NC(=O)Cn4nc(Cc5ccccc5)nc4Cc4ccccc4)OC3(C)C1C2 (stereo partly drawn) [Example 2447] | 0.5 to 50 | < 0.5 | 0.5 to 50 |  |
| NCCCC[C@H](NC(=O)Cn1cnc(Cc2ccccc2)n1)B(O)O [Example 2499] | 0.5 to 50 | < 0.5 | 0.5 to 50 |  |
| NCCCC[C@H](NC(=O)Cn1nc(Cc2ccccc2)nc1-c1ccccc1)B(O)O [Example 2533] | > 500 | < 0.5 | 0.5 to 50 |  |
| Cc1nc(-c2ccccc2)ncc1C(=O)N[C@@H](CCCCN)B1O[C@@H]2C[C@@H]3C[C@@H](C3(C)C)[C@]2(C)O1 [Example 3458, R-N^1-((2-phenyl-4-methylpyrimidin-5-yl)carbonyl)borolysine, (+)-pinanediol ester, hydrochloride] | 0.5 to 50 | < 0.5 | > 500 |  |
| Cc1nc(-c2ccccc2)ncc1C(=O)N[C@@H](CCCNC(=N)N)B1O[C@@H]2C[C@@H]3C[C@@H](C3(C)C)[C@]2(C)O1 [Example 3538, R-N^1-((2-phenyl-4-methylpyrimidin-5-yl)carbonyl)boroarginine, (+)-pinanediol ester, hydrochloride] | 0.5 to 50 | < 0.5 | 0.5 to 50 |  |
